In patent publication US20230123334A1, “AMINO LIPID COMPOUND, PREPARATION METHOD THEREFOR, AND APPLICATION THEREOF” (SHENZHEN SHENXIN BIOTECHNOLOGY CO., LTD., priority 2020, published 2023):

Each compound was assayed on HEK293 cells (assay: Preliminary screening as DNA vectors, GFP transfection of HEK293 cells). Details: amino lipid/DOPE liposome with 75 ng plasmid DNA (psin-EGFP-IRES-Puro); number of GFP-expressing cells divided by total nuclei (Hoechst).
Assay type: cell-based
Procedure, shortened: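 Lipid + DOPE liposomes (NaOAc, pH 5.6) complexed w/ 75 ng psin-EGFP-IRES-Puro, 30 min RT; added to 3-5×10^4 HEK293/well, 37° C. Hoechst 0.2 μg/mL at 20-24 h, imaged after further 20-24 h. Efficiency = GFP+ cells / total nuclei.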

| Structure (SMILES) | Absolute DNA transfection efficiency in HEK293 cells |
| --- | --- |
| CCCCCCCCCCSc1nc(NCCCCCCC)nc(NCCN2CCCC2)n1 [S10N7 D3] | 7.4% |
| CCCCCCCCCCSc1nc(NCCCCCCC)nc(NCCN2CCCCC2)n1 [S10N7 D4] | 3.6% |
| CCCCCCCCCCSc1nc(NCCCCCCC)nc(NCCN2CCN(C)CC2)n1 [S10N7 D5] | 7.5% |
| CCCCCCCCCCSc1nc(NCCCCCCC)nc(NCCCN(C)C)n1 [S10N7 D6] | 6.2% |
| CCCCCCCCCCSc1nc(NCCCCCCC)nc(NCCN(CC)CC)n1 [S10N7 D7] | 8.1% |
| CCCCCCCCCCSc1nc(NCCCCCCC)nc(NCCCN2CCOCC2)n1 [S10N7 D8] | 2.6% |
| CCCCCCCCCCSc1nc(NCCCCCCC)nc(NCCCN2CCN(C)CC2)n1 [S10N7 D9] | 4.5% |
| CCCCCCCCCCSc1nc(NCCCCCCC)nc(NCC2CCN(C)CC2)n1 [S10N7 D10] | 1.1% |
| CCCCCCCCCCSc1nc(NCCCCCCCC)nc(NCCN(C)C)n1 [S10N8 D1] | 7.1% |
| CCCCCCCCCCSc1nc(NCCCCCCCC)nc(NCCN2CCOCC2)n1 [S10N8 D2] | 3.7% |
| CCCCCCCCCCSc1nc(NCCCCCCCC)nc(NCCN2CCCC2)n1 [S10N8 D3] | 3.9% |
| CCCCCCCCCCSc1nc(NCCCCCCCC)nc(NCCN2CCCCC2)n1 [S10N8 D4] | 2.1% |
| CCCCCCCCCCSc1nc(NCCCCCCCC)nc(NCCN2CCN(C)CC2)n1 [S10N8 D5] | 13.2% |
| CCCCCCCCCCSc1nc(NCCCCCCCC)nc(NCCCN(C)C)n1 [S10N8 D6] | 10.7% |
| CCCCCCCCCCSc1nc(NCCCCCCCC)nc(NCCN(CC)CC)n1 [S10N8 D7] | 2.0% |
| CCCCCCCCCCSc1nc(NCCCCCCCC)nc(NCCCN2CCOCC2)n1 [S10N8 D8] | 3.4% |
| CCCCCCCCCCSc1nc(NCCCCCCCC)nc(NCCCN2CCN(C)CC2)n1 [S10N8 D9] | 5.6% |
| CCCCCCCCCCSc1nc(NCCCCCCCC)nc(NCC2CCN(C)CC2)n1 [S10N8 D10] | 0.6% |
| CCCCCCCCCCSc1nc(NCCCCCCCCC)nc(NCCN(C)C)n1 [S10N9 D1] | 7.1% |
| CCCCCCCCCCSc1nc(NCCCCCCCCC)nc(NCCN2CCOCC2)n1 [S10N9 D2] | 3.7% |
| CCCCCCCCCCSc1nc(NCCCCCCCCC)nc(NCCN2CCCC2)n1 [S10N9 D3] | 4.9% |
| CCCCCCCCCCSc1nc(NCCCCCCCCC)nc(NCCN2CCCCC2)n1 [S10N9 D4] | 2.7% |
| CCCCCCCCCCSc1nc(NCCCCCCCCC)nc(NCCN2CCN(C)CC2)n1 [S10N9 D5] | 11.9% |

| Structure (SMILES) | Absolute DNA transfection efficiency in HEK293 cells |
| --- | --- |
| CCCCCCCCCCSc1nc(NCCCCCCCCC)nc(NCCCN(C)C)n1 [S10N9 D6] | 21.0% |
| CCCCCCCCCCSc1nc(NCCCCCCCCC)nc(NCCN(CC)CC)n1 [S10N9 D7] | 6.9% |
| CCCCCCCCCCSc1nc(NCCCCCCCCC)nc(NCCCN2CCOCC2)n1 [S10N9 D8] | 3.4% |
| CCCCCCCCCCSc1nc(NCCCCCCCCC)nc(NCCCN2CCN(C)CC2)n1 [S10N9 D9] | 12.0% |
| CCCCCCCCCCSc1nc(NCCCCCCCCC)nc(NCC2CCN(C)CC2)n1 [S10N9 D10] | 4.5% |
| CCCCCCCCCCCNc1nc(NCCN(C)C)nc(SCCCCCCCCCC)n1 [S10N11 D1] | 4.8% |
| CCCCCCCCCCCNc1nc(NCCN2CCOCC2)nc(SCCCCCCCCCC)n1 [S10N11 D2] | 1.5% |
| CCCCCCCCCCCNc1nc(NCCN2CCCC2)nc(SCCCCCCCCCC)n1 [S10N11 D3] | 12.6% |
| CCCCCCCCCCCNc1nc(NCCN2CCCCC2)nc(SCCCCCCCCCC)n1 [S10N11 D4] | 8.7% |
| CCCCCCCCCCCNc1nc(NCCN2CCN(C)CC2)nc(SCCCCCCCCCC)n1 [S10N11 D5] | 7.2% |
| CCCCCCCCCCCNc1nc(NCCCN(C)C)nc(SCCCCCCCCCC)n1 [S10N11 D6] | 26.5% |
| CCCCCCCCCCCNc1nc(NCCN(CC)CC)nc(SCCCCCCCCCC)n1 [S10N11 D7] | 5.0% |
| CCCCCCCCCCCNc1nc(NCCCN2CCOCC2)nc(SCCCCCCCCCC)n1 [S10N11 D8] | 3.8% |
| CCCCCCCCCCCNc1nc(NCCCN2CCN(C)CC2)nc(SCCCCCCCCCC)n1 [S10N11 D9] | 10.8% |
| CCCCCCCCCCCNc1nc(NCC2CCN(C)CC2)nc(SCCCCCCCCCC)n1 [S10N11 D10] | 5.4% |
| CCCCCCCCCCCCNc1nc(NCCN(C)C)nc(SCCCCCCCCCC)n1 [S10N12 D1] | 1.8% |
| CCCCCCCCCCCCNc1nc(NCCN2CCOCC2)nc(SCCCCCCCCCC)n1 [S10N12 D2] | 3.7% |
| CCCCCCCCCCCCNc1nc(NCCN2CCCC2)nc(SCCCCCCCCCC)n1 [S10N12 D3] | 7.2% |
| CCCCCCCCCCCCNc1nc(NCCN2CCCCC2)nc(SCCCCCCCCCC)n1 [S10N12 D4] | 4.7% |
| CCCCCCCCCCCCNc1nc(NCCN2CCN(C)CC2)nc(SCCCCCCCCCC)n1 [S10N12 D5] | 2.6% |
| CCCCCCCCCCCCNc1nc(NCCCN(C)C)nc(SCCCCCCCCCC)n1 [S10N12 D6] | 19.8% |
| CCCCCCCCCCCCNc1nc(NCCN(CC)CC)nc(SCCCCCCCCCC)n1 [S10N12 D7] | 5.9% |
| CCCCCCCCCCCCNc1nc(NCCCN2CCOCC2)nc(SCCCCCCCCCC)n1 [S10N12 D8] | 5.3% |

| Structure (SMILES) | Absolute DNA transfection efficiency in HEK293 cells |
| --- | --- |
| CCCCCCCCCCCCNc1nc(NCCCN2CCN(C)CC2)nc(SCCCCCCCCCC)n1 [S10N12 D9] | 3.6% |
| CCCCCCCCCCCCNc1nc(NCC2CCN(C)CC2)nc(SCCCCCCCCCC)n1 [S10N12 D10] | 6.8% |
| CCCCCCCCCCCCCNc1nc(NCCN(C)C)nc(SCCCCCCCCCC)n1 [S10N13 D1] | 6.1% |
| CCCCCCCCCCCCCNc1nc(NCCN2CCOCC2)nc(SCCCCCCCCCC)n1 [S10N13 D2] | 4.2% |
| CCCCCCCCCCCCCNc1nc(NCCN2CCCC2)nc(SCCCCCCCCCC)n1 [S10N13 D3] | 7.7% |
| CCCCCCCCCCCCCNc1nc(NCCN2CCCCC2)nc(SCCCCCCCCCC)n1 [S10N13 D4] | 4.2% |
| CCCCCCCCCCCCCNc1nc(NCCN2CCN(C)CC2)nc(SCCCCCCCCCC)n1 [S10N13 D5] | 2.1% |
| CCCCCCCCCCCCCNc1nc(NCCCN(C)C)nc(SCCCCCCCCCC)n1 [S10N13 D6] | 7.9% |
| CCCCCCCCCCCCCNc1nc(NCCN(CC)CC)nc(SCCCCCCCCCC)n1 [S10N13 D7] | 4.4% |
| CCCCCCCCCCCCCNc1nc(NCCCN2CCOCC2)nc(SCCCCCCCCCC)n1 [S10N13 D8] | 5.7% |
| CCCCCCCCCCCCCNc1nc(NCCCN2CCN(C)CC2)nc(SCCCCCCCCCC)n1 [S10N13 D9] | 0.4% |
| CCCCCCCCCCCCCNc1nc(NCC2CCN(C)CC2)nc(SCCCCCCCCCC)n1 [S10N13 D10] | 3.2% |
| CCCCCCCCCCCCCCCNc1nc(NCCN(C)C)nc(SCCCCCCCCCC)n1 [S10N15 D1] | 4.8% |
| CCCCCCCCCCCCCCCNc1nc(NCCN2CCOCC2)nc(SCCCCCCCCCC)n1 [S10N15 D2] | 1.4% |
| CCCCCCCCCCCCCCCNc1nc(NCCN2CCCC2)nc(SCCCCCCCCCC)n1 [S10N15 D3] | 11.5% |
| CCCCCCCCCCCCCCCNc1nc(NCCN2CCCCC2)nc(SCCCCCCCCCC)n1 [S10N15 D4] | 4.1% |
| CCCCCCCCCCCCCCCNc1nc(NCCN2CCN(C)CC2)nc(SCCCCCCCCCC)n1 [S10N15 D5] | 3.2% |
| CCCCCCCCCCCCCCCNc1nc(NCCCN(C)C)nc(SCCCCCCCCCC)n1 [S10N15 D6] | 9.1% |
| CCCCCCCCCCCCCCCNc1nc(NCCN(CC)CC)nc(SCCCCCCCCCC)n1 [S10N15 D7] | 1.7% |
| CCCCCCCCCCCCCCCNc1nc(NCCCN2CCOCC2)nc(SCCCCCCCCCC)n1 [S10N15 D8] | 5.1% |
| CCCCCCCCCCCCCCCNc1nc(NCCCN2CCN(C)CC2)nc(SCCCCCCCCCC)n1 [S10N15 D9] | 4.1% |
